Literature values in patent US6849609B2, “Method and composition for controlled release acarbose formulations” (priority 2001, dated 2005).

Test system: patients

## C[C@H]1O[C@H](O[C@H]2[C@H](O)[C@@H](O)[C@@H](O[C@H]3[C@H](O)[C@@H](O)C(O)O[C@@H]3CO)O[C@@H]2CO)[C@H](O)[C@@H](O)[C@@H]1N[C@H]1C=C(CO)[C@@H](O)[C@H](O)[C@H]1O (some centres unmarked) [Acarbose]
Acarbose alone, even when administered to patients in a fasted state
  hypoglycemia: has not been shown to cause hypoglycemia
Patients taking acarbose, shown to abate with time
  most common adverse events: flatulence, diarrhea and abdominal discomfort
